{"source": "ChEMBL document CHEMBL6109122", "about": "(J Med Chem, 2025)", "note": "Activity calls are given as the source filed them. The calls are words filed in the database; no cut-off is given here."}
{"biological_target": "T1, Protein cereblon/Non-receptor tyrosine-protein kinase TYK2 (Homo sapiens, UniProt P29597+Q96SW2)", "T1 sequence (P29597 whole entry, looked up)": "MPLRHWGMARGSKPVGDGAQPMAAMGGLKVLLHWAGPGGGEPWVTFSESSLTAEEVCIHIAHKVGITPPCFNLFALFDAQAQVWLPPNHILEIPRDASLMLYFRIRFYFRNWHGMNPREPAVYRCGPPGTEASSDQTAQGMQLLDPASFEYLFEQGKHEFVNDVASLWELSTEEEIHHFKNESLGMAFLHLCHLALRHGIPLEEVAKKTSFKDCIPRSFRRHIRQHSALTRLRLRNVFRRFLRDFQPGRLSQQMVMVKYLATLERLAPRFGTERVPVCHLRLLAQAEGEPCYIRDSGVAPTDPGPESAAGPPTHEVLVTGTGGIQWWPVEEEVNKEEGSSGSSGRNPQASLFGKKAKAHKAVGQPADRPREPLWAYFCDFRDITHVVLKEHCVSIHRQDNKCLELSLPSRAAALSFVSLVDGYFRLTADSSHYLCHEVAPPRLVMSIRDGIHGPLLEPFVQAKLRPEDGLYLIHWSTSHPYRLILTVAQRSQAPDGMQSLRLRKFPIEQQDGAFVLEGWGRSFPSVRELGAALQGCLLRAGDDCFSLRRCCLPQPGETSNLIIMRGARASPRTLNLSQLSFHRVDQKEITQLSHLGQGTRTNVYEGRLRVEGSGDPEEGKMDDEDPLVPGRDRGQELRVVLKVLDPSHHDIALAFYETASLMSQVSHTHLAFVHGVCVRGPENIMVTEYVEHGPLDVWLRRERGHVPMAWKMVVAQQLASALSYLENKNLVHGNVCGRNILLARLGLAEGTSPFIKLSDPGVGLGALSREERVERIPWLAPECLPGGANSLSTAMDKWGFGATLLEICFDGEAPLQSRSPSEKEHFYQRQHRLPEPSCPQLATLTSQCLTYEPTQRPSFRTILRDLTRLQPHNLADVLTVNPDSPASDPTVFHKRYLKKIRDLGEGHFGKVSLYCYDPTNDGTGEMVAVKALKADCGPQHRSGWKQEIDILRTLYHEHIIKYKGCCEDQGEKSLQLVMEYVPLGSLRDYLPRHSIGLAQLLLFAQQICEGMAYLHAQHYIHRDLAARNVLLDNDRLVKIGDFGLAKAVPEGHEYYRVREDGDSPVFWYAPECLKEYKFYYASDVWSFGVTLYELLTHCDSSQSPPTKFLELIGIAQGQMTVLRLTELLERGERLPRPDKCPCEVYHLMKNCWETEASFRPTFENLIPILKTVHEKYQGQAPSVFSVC", "T1 sequence (Q96SW2 whole entry, looked up)": "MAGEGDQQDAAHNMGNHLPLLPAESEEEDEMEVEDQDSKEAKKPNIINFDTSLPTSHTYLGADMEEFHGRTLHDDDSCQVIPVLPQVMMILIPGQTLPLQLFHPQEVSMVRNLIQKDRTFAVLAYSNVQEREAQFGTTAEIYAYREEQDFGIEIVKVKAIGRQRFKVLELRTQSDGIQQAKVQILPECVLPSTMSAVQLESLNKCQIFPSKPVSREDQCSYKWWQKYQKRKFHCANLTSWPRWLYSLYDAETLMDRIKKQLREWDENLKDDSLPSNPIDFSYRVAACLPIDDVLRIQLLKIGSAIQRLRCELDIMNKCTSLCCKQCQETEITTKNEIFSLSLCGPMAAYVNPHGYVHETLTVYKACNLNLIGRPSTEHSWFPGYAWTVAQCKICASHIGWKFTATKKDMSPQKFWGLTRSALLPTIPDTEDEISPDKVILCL", "test": "PROTAC activity at CRBN/TYK2 in human Jurkat cells assessed as induction of degradation of TYK2 at 1 nM measured after 10 hrs by Western blot analysis relative to control", "assay_type": "cell-based", "conditions": "not given", "units": {"Activity": "%"}}
{"smiles": "CNC(=O)c1cnc(Nc2ccc(C(=O)N3CC4(CCN(c5ccc6c(c5)C(=O)N(C5CCC(=O)NC5=O)C6=O)CC4)C3)cn2)cc1Nc1cccc(-c2ncc(F)cn2)c1OC", "note": "(stereo not given)", "Activity": 42}
{"smiles": "CNC(=O)c1cnc(Nc2ccc(C(=O)N3CC4(C3)CN(c3ccc5c(c3)C(=O)N(C3CCC(=O)NC3=O)C5=O)C4)cn2)cc1Nc1cccc(-c2ncc(F)cn2)c1OC", "note": "(stereo not given)", "Activity": 46}
{"smiles": "CNC(=O)c1cnc(Nc2ccc(C(=O)N3CCC(CNc4ccc5c(c4)C(=O)N(C4CCC(=O)NC4=O)C5=O)CC3)cn2)cc1Nc1cccc(-c2ncc(F)cn2)c1OC", "note": "(stereo not given)", "Activity": 7}
{"biological_target": "T1, Protein cereblon/Non-receptor tyrosine-protein kinase TYK2", "test": "PROTAC activity at CRBN/TYK2 in human HaCaT cells assessed as induction of degradation of TYK2 measured after 10 hrs by Western blot analysis", "assay_type": "cell-based", "conditions": "dose 1-100 nM, tested as the 2H-labelled form"}
{"smiles": "CNC(=O)c1nnc(NC(=O)C2CC2)cc1Nc1cccc(-c2ncn(C)n2)c1OC", "Activity": "inactive"}
{"test_system": "not listed separately", "test": "Inhibition of TYK2 dependent STAT3 phosphorylation in IL-6 stimulated human PBMC cells preincubated for 60 mins followed by IL-6 stimulation and measured after 60 mins by FACS assay", "assay_type": "cell-based", "conditions": "not given", "units": {"IC50": "nM"}}
{"smiles": "[2H]C([2H])([2H])NC(=O)c1nnc(NC(=O)C2CC2)cc1Nc1cccc(-c2ncn(C)n2)c1OC", "note": "[DEUCRAVACITINIB]", "IC50": 405}
{"test_system": "not listed separately", "test": "Metabolic stability in mouse liver microsomes assessed as intrinsic clearance measured up to 120 mins by LC-MS/MS analysis", "assay_type": "ADME, Microsome", "conditions": "read-out: CLH", "units": {"CLint scaled": "mL/min/kg"}}
{"smiles": "CNC(=O)c1cnc(Nc2ccc(C(=O)NCCCCCNc3ccc4c(c3)C(=O)N(C3CCC(=O)NC3=O)C4=O)cn2)cc1Nc1cccc(-c2ncc(F)cn2)c1OC", "note": "(stereo not given)", "CLint scaled": 365}
{"smiles": "CNC(=O)c1cnc(Nc2ccc(C(=O)N3CC4(C3)CN(c3ccc5c(c3)C(=O)N(C3CCC(=O)NC3=O)C5=O)C4)cn2)cc1Nc1cccc(-c2ncc(F)cn2)c1OC", "note": "(stereo not given)", "CLint scaled": 53}
{"test_system": "not listed separately", "test": "Metabolic stability in mouse liver microsomes assessed as half life measured up to 120 mins by LC-MS/MS analysis", "assay_type": "ADME, Microsome", "conditions": "not given", "units": {"half-life": "min"}}
{"smiles": "CNC(=O)c1cnc(Nc2ccc(C(=O)NCCCCCNc3ccc4c(c3)C(=O)N(C3CCC(=O)NC3=O)C4=O)cn2)cc1Nc1cccc(-c2ncc(F)cn2)c1OC", "note": "(stereo not given)", "half-life": 15}
{"smiles": "CNC(=O)c1cnc(Nc2ccc(C(=O)N3CC4(C3)CN(c3ccc5c(c3)C(=O)N(C3CCC(=O)NC3=O)C5=O)C4)cn2)cc1Nc1cccc(-c2ncc(F)cn2)c1OC", "note": "(stereo not given)", "half-life": 104}
{"biological_target": "T1, Protein cereblon/Non-receptor tyrosine-protein kinase TYK2", "test": "(§1) PROTAC activity at CRBN/TYK2 in human Jurkat cells assessed as induction of degradation of TYK2 at 10 nM measured after 10 hrs by Western blot analysis relative to control", "assay_type": "cell-based", "conditions": "not given", "units": {"Activity": "%"}}
{"smiles": "CNC(=O)c1cnc(Nc2ccc(C(=O)NCCCCCNc3ccc4c(c3)C(=O)N(C3CCC(=O)NC3=O)C4=O)cn2)cc1Nc1cccc(-c2ncc(F)cn2)c1OC", "note": "(stereo not given)", "Activity": 88}
{"smiles": "CNC(=O)c1cnc(Nc2ccc(C(=O)N3CC4(CCN(c5ccc6c(c5)C(=O)N(C5CCC(=O)NC5=O)C6=O)CC4)C3)cn2)cc1Nc1cccc(-c2ncc(F)cn2)c1OC", "note": "(stereo not given)", "Activity": 69}
{"smiles": "CNC(=O)c1cnc(Nc2ccc(C(=O)N3CC4(C3)CN(c3ccc5c(c3)C(=O)N(C3CCC(=O)NC3=O)C5=O)C4)cn2)cc1Nc1cccc(-c2ncc(F)cn2)c1OC", "note": "(stereo not given)", "Activity": 83}
{"smiles": "CNC(=O)c1cnc(Nc2ccc(C(=O)N3CCC(CNc4ccc5c(c4)C(=O)N(C4CCC(=O)NC4=O)C5=O)CC3)cn2)cc1Nc1cccc(-c2ncc(F)cn2)c1OC", "note": "(stereo not given)", "Activity": 35}
{"biological_target": "T1, Protein cereblon/Non-receptor tyrosine-protein kinase TYK2", "test": "as §1", "assay_type": "cell-based", "conditions": "tested as the 2H-labelled form"}
{"smiles": "CNC(=O)c1nnc(NC(=O)C2CC2)cc1Nc1cccc(-c2ncn(C)n2)c1OC", "Activity": "inactive"}
{"test_system": "not listed separately", "test": "Inhibition of TYK2 dependent STAT3 phosphorylation in IL-12 stimulated human PBMC cells preincubated for 60 mins followed by IL-12 stimulation and measured after 60 mins by FACS assay", "assay_type": "cell-based", "conditions": "not given", "units": {"IC50": "nM"}}
{"smiles": "[2H]C([2H])([2H])NC(=O)c1nnc(NC(=O)C2CC2)cc1Nc1cccc(-c2ncn(C)n2)c1OC", "note": "[DEUCRAVACITINIB]", "IC50": 7.4}
{"biological_target": "T1, Protein cereblon/Non-receptor tyrosine-protein kinase TYK2", "test": "(§2) PROTAC activity at CRBN/TYK2 in human Jurkat cells assessed as induction of degradation of TYK2 at 100 nM measured after 10 hrs by Western blot analysis relative to control", "assay_type": "cell-based", "conditions": "not given", "units": {"Activity": "%"}}
{"smiles": "CNC(=O)c1cnc(Nc2ccc(C(=O)NCCCCCNc3ccc4c(c3)C(=O)N(C3CCC(=O)NC3=O)C4=O)cn2)cc1Nc1cccc(-c2ncc(F)cn2)c1OC", "note": "(stereo not given)", "Activity": 65}
{"smiles": "CNC(=O)c1cnc(Nc2ccc(C(=O)N3CC4(CCN(c5ccc6c(c5)C(=O)N(C5CCC(=O)NC5=O)C6=O)CC4)C3)cn2)cc1Nc1cccc(-c2ncc(F)cn2)c1OC", "note": "(stereo not given)", "Activity": 61}
{"smiles": "CNC(=O)c1cnc(Nc2ccc(C(=O)N3CC4(C3)CN(c3ccc5c(c3)C(=O)N(C3CCC(=O)NC3=O)C5=O)C4)cn2)cc1Nc1cccc(-c2ncc(F)cn2)c1OC", "note": "(stereo not given)", "Activity": 68}
{"smiles": "CNC(=O)c1cnc(Nc2ccc(C(=O)N3CCC(CNc4ccc5c(c4)C(=O)N(C4CCC(=O)NC4=O)C5=O)CC3)cn2)cc1Nc1cccc(-c2ncc(F)cn2)c1OC", "note": "(stereo not given)", "Activity": 10}
{"biological_target": "T1, Protein cereblon/Non-receptor tyrosine-protein kinase TYK2", "test": "as §2", "assay_type": "cell-based", "conditions": "tested as the 2H-labelled form"}
{"smiles": "CNC(=O)c1nnc(NC(=O)C2CC2)cc1Nc1cccc(-c2ncn(C)n2)c1OC", "Activity": "inactive"}
